We go through 3 molecules from US6699681B2, “Endothelin converting enzymes and the amyloid β peptide” (Mayo Foundation for Medical Education and Research, priority 2000, dated 2004).

One test deals with H4 neuroglioma cells. Put plainly: Extracellular Aβ after treatment of H4 cells with metalloprotease inhibitors. The format is cell-based, human. The note with it: H4 neuroglioma cells; thiorphan or captopril at concentrations greater than 1000-times the reported IC50 for the target enzymes. The protocol: Human and guinea pig Aβ40 or Aβ42 was measured in plasma by sandwich ELISA as previously described (Suzuki et al., 1994, Science, 264:1336-1340) using the BAN-50/BA-27 or BAN-50/BC-05 antibody systems, respectively (Takeda; Japan). Hamster Aβ40- or Aβ42-derived from CHO cells was measured using the BNT-77/BA-27 or BNT-77/BC-05 antibody systems, respectively. Aβ concentration in samples was determined by comparison to synthetic Aβ40 or Aβ42 standards (Bachem, Switzerland). Data was obtained from triplicate wells.
In particular, the sandwich ELISA used herein was performed as follows: 96-well microtiter plates were coated overnight at 4° C. with 100 μl of a 5 μg/ml dilution of primary antibody in sodium carbonate coating buffer (SCCB; 0.1 M Na2CO3, pH 9.6). Plates were blocked overnight at 4° C. with 300 μl of BLOCKAGE Solution (PBS+1.0% BLOCKAGE (Snow Brand Milk Products, Japan), 0.05% NaN3, pH 7.4). Samples for analysis and synthetic Aβ standards (Bachem, Switzerland) were diluted in buffer EC (0.02 M NaH2PO4, 0.002 M EDTA, 0.4 M NaCl, 0.2% BSA, 0.05% CHAPS, 0.04% BLOCKAGE, 0.05% NaN3, pH 7.0) and allowed to incubate on the plates overnight at 4° C. Plates were washed twice with PBS (8 mM Na2HPO4, 1.5 mM KH2PO4, 139 mM NaCl, 2.7 mM KCl, pH 7.4) and 100 μl of secondary antibody directly coupled to HRP (EZ-LINK™ Plus Activated Peroxidase kit (contents of kit: peroxidase, 5 M sodium cyanoborohydride solution (NaBH3CN), quenching buffer (3 M ethanolamine, pH 9.0), BupH™ phosphate buffered saline, Buph™ carbonate-bicarbonate buffer), according to manufacturers directions; Pierce Chemical Co., Rockford, Ill.) was allowed to bind either 4 hrs at room temperature or overnight at 4° C. Plates were then washed twice with PBS containing 0.05% Tween 20 followed by two additional washes in PBS. Detection was performed using TMB (3,3′,5,5′-tetramethyl-benzidine) as an HRP substrate according to the manufacturer's specifications (Kirkegaard & Perry Laboratories (KPL), Gaithersburg, Md.) and the reaction stopped by the addition of 100 μl of 1N H3PO4. Plates were read at 450 nm in a SpectraMax Plus spectrophotometer (Molecular Devices; Sunnyvale, Calif.) and analyzed by SOFTmax® PRO software. Aβ40 or Aβ42 were quantitated by comparison with the values obtained for each synthetic Aβ standard from the same plate.
Cells were passaged into 6-well plates one day prior to treatment and grown to confluence. […] After treatment, the culture medium was harvested, spun at 14,000 xg, and the supernatant analyzed for Aβ40 or Aβ42 using sandwich ELISA and for secreted APP using Western blot. […] Bound antibody was detected by incubation with the appropriate HRP-linked secondary antibody (Amersham, Uppsala, Sweden) using ECL™ Western blotting reagents (Amersham) followed by exposure to X-ray film. […]

A further test concerns Aβ in the brain. The note with it: infusion into the brain of rats; deposition of Aβ42; previous report; cited from earlier work.
In the next test the test system is synthetic Aβ40 or Aβ42. The test is described as follows: Aβ degradation by SolECE-1, sandwich ELISA. The format is biochemical. The following applies: SolECE-1 approximately 0.2 μM; Aβ 0.01 μM; 24 hrs at 37° C., pH 6.5. The method, then:
(§1) SolECE-1 (approximately 0.2 μM) was pre-incubated for 15 min at room temperature with the ECE inhibitors PD069185 (synthesized according to published methods (Ahn et al., 1998, Biochem. Biophys. Res. Comm., 243:184-190) by the Mayo Clinic Organic Chemistry Core Facility, Jacksonville, Fla.) or phosphoramidon (150 μM), or an equal volume of vehicle (DMSO or PBS, respectively) prior to incubation with synthetic Aβ40 or Aβ42 (0.01 μM) in 50 mM MES (pH 6.5) containing 0.01% C12E10, 1 mM PMSF, 100 μM leupeptin, and 20 μM pepstatin. As a control, Aβ was incubated with Ni-NTA purified proteins from non-transfected CHO cells, or in reaction buffer alone. Following incubation for 24 hrs at 37° C., the reactions were stopped by the addition of 5 mM EDTA. Aβ concentration was then analyzed using a highly specific sandwich ELISA that captures Aβ via binding of antibody BAN-50 to the N-terminus, and detects only full-length Aβ peptides ending at residue 40 (using antibody BA-27) or 42 (using antibody BC-05). Thus, Aβ that has been further hydrolyzed will not be detected using this assay. To further analyze the degradation of Aβ by SolECE1, the enzyme was incubated with ^3H labeled Aβ40 (0.56 μM, 2×10^4 dpm) as described above and resulting peptides were separated by reverse-phase chromatography.
For orientation: ELISA stands for enzyme-linked immunosorbent assay.

For another test, the system named is 3H-Aβ40. Put plainly: Degradation of 3H labeled Aβ40 by SolECE-1, reverse-phase chromatography. The format is biochemical. The following applies: 3H-Aβ40 0.56 μM. The protocol:
as §1

Consider `O=C(O)CNC(=O)C(CS)Cc1ccccc1` (centres unmarked) [thiorphan], for which the “extracellular Aβ accumulation” value in the test with H4 neuroglioma cells is “failed to result in increased extracellular Aβ”. In the test with Aβ in the brain, the “amount of Aβ in the brain” value is reported as “significant increase”.

With `C[C@H](CS)C(=O)N1CCC[C@H]1C(=O)O` [captopril], in the test on H4 neuroglioma cells, the “extracellular Aβ accumulation” value is recorded as “failed to result in increased extracellular Aβ”.

B1: SolECE-1: recombinant soluble form of ECE-1: extracellular domain of human ECE-1a with c-myc and 6×His tags, secreted by CHO cells (protein, UniProt P42892 90-770, looked up)
extracellular domain: QYQTRSPSVCLSEACVSVTSSILSSMDPTVDPCHDFFSYACGGWIKANPVPDGHSRWGTFSNLWEHNQAIIKHLLENSTASVSEAERKAQVYYRACMNETRIEELRAKPLMELIERLGGWNITGPWAKDNFQDTLQVVTAHYRTSPFFSVYVSADSKNSNSNVIQVDQSGLGLPSRDYYLNKTENEKVLTGYLNYMVQLGKLLGGGDEEAIRPQMQQILDFETALANITIPQEKRRDEELIYHKVTAAELQTLAPAINWLPFLNTIFYPVEINESEPIVVYDKEYLEQISTLINTTDRCLLNNYMIWNLVRKTSSFLDQRFQDADEKFMEVMYGTKKTCLPRWKFCVSDTENNLGFALGPMFVKATFAEDSKSIATEIILEIKKAFEESLSTLKWMDEETRKSAKEKADAIYNMIGYPNFIMDPKELDKVFNDYTAVPDLYFENAMRFFNFSWRVTADQLRKAPNRDQWSMTPPMVNAYYSPTKNEIVFPAGILQAPFYTRSSPKALNFGGIGVVVGHELTHAFDDQGREYDKDGNLRPWWKNSSVEAFKRQTECMVEQYSNYSVNGEPVNGRHTLGENIADNGGLKAAYRAYQNWVKKNGAEHSLPTLGLTNNQLFFLGFAQVWCSVRTPESSHEGLITDPHSPSRFRVIGSLSNSKEFSEHFRCPPGSPMNPPHKCEVW
modifications: extracellular domain c-myc and 6xHis tags
notes: recombinant soluble form of ECE-1: extracellular domain of human ECE-1a with c-myc and 6×His tags, secreted by CHO cells
As to B1, the “loss of synthetic Aβ40 and Aβ42 detected by sandwich ELISA” value in the test on synthetic Aβ40 or Aβ42 is recorded as “almost complete loss”. The “effect on 3H-Aβ40 by reverse-phase chromatography” value with 3H-Aβ40 was “loss of the full-length (i.e., unhydrolyzed) Aβ and the formation of at least 4 novel peaks”.
